Test results reported in patent US20170260226A1, “3-NITROGEN OR SULPHUR SUBSTITUTED OESTRA-1,3,5(10),16-TETRAENE AKR1C3 INHIBITORS” (BAYER PHARMA AKTIENGESELLSCHAFT, priority 2014, published 2017).
pIC50: −log10 of the molar value.

Experiments:
[1] = molecular target: T1, AKR1C3 (Homo sapiens, UniProt P42330); experiment: AKR1C3 enzyme inhibition assay (coumberone to coumberol fluorescence); format: biochemical; set-up: GST (cleaved yes); made in house; host or cells: E. coli; settings: mean values; 10 μM NADPH, 0.3 μM coumberone, 3 h at room temperature
T1 sequence (P42330 1-323): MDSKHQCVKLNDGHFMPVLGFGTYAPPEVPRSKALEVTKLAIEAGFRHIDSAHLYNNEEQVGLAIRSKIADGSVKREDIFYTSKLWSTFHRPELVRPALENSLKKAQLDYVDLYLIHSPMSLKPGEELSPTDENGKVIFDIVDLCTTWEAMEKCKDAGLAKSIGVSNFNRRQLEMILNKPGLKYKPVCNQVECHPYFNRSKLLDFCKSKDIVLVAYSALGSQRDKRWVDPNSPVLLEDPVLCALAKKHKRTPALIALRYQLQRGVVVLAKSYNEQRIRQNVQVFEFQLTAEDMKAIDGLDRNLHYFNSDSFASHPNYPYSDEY
Description: The AKR1C3-inhibitory action of the substances of this invention was measured in the AKR1C3 assay described in the paragraphs which follow.
Essentially, the enzyme activity is measured by quantifying the coumberol formed from coumberone (Halim, M., Yee, D., J., and Sames, D., J. A., M. (2008). Chem Soc 130, 14123-14128 and Yee, D., J., Balsanek, V., Bauman, D., R., Penning, T., M., and Sames, D. (2006). Proc Natl Acad Sci USA, 103, 13304-13309). In this assay, the increase in the highly fluorescent coumberol can be determined by NADPH (nicotinamide adenine dinucleotide phosphate)-dependent reduction of the nonfluorescent coumberone by AKR1C3.
The enzyme used was recombinant human AKR1C3 (aldo-keto reductase family 1 member C3) (GenBank Accession No. NM_003739). This was expressed as the GST (glutathione S-transferase) fusion protein in E. coli and purified by means of glutathione-Sepharose affinity chromatography. The GST was removed by thrombin digestion with subsequent size exclusion chromatography (Dufort, I., Rheault, P., Huang, X., F., Soucy, P., and Luu-The, V. (1999). Endocrinology,140, 568-574).
For the assay, 40-50 nl of a 100-fold concentrated solution of the test substance in DMSO were pipetted into a black low-volume 384-well microtitre plate (Greiner Bio-One, Frickenhausen, Germany), 2-2.5 μl of a solution of AKR1C3 in assay buffer [50 mM potassium phosphate buffer pH 7, 1 mM DTT, 0.0022% (w/v) Pluronic F-127, 0.01% BSA (w/v) and protease inhibitor cocktail (complete, EDTA-free Protease Inhibitor Cocktail from Roche)] were added and the mixture was incubated for 20 min, in order to enable preliminary binding of the substances to the enzyme prior to the enzyme reaction. Then the enzyme reaction was started by adding 2-2.5 μl of a solution of NADPH and coumberone in assay buffer (final assay concentration was 10 μM NADPH and 0.3 μM coumberone) and the resulting mixture was incubated at room temperature for 3 h. Typical concentrations were depending on the linear range of the enzyme reaction during the reaction time about 1 nM. The reaction was stopped by adding 2 μl of a stop solution consisting of the AKR1C3 inhibitor EM-1404 to a final concentration of 1 μM. Subsequently, the fluorescence of coumberol was measured at 520 nm (excitation at 380 nm) with a suitable measuring instrument (Pherastar, BMG). […] The data were normalized (enzyme+coumberon substrate in assay buffer=0% inhibition; coumberone substrate only in assay buffer=100% inhibition). Substances were usually tested at 11 different concentrations on the same microtiter plate in a range between 96.8 pM to 20 μM (20 μM, 5.9 μM, 1.7 μM, 0.5 μM, 0.15 μM, 44 nM, 12.9 nM, 3.8 nM, 1.1 nM, 0.3 nM and 96.8 pM). The dilutions were carried out on a 100 fold concentrated solution by serial dilution in duplicates. From the obtained data IC50 values were calculated by a 4-parameter fit.

[2] = molecular target: T1, AKR1C3; experiment: AKR1C3 inhibition in a cell-based system (HEK293 cells transfected with AKR1C3 expression plasmid, coumberon substrate); set-up: expressed in transfected cells; host or cells: HEK293 cells (ATCC); settings: mean values; HEK293 cells transfected with AKR1C3, coumberon 6×10^−6M, 3 h; read-out: Cellular AKR1C3 inhibition IC50
Description: The inhibition of AKR1C3 by the substances described in this invention was measured in a cell-based assay using coumberon as the substrate for AKR1C3 (Halim, M., Yee, D., J., and Sames, D., J. (2008). Am Chem Soc, 130, 14123-14128 and Yee, D., J., Balsanek, V., Bauman, D., R., Penning, T., M., and Sames, D. (2006), Proc Natl Acad Sci USA 103, 13304-13309) (cf. Example 48).
The cell system used was HEK293 cells (ATCC, USA) (DMEM/F12, 10% FCS, 2 mM L-Glutamine, PSG). The cells were transfected with an AKR1C3 expression plasmid (pCMV6-AC-AKR1C3, GenBank Accession No. NM 003739.4), harvested after 24 hours and subsequently frozen. For assays, the frozen cells were thawed in assay medium (DMEM/F12 w/o phenolred, 0.005% Tween, 10% FCS, 2 mM L-Glutamine, PSG). Cells were seeded at 2500 cells/well into 384-well low volume or 1536-well plates (Greiner Bio-One, Frickenhausen, Germany) that contained 40-50 nl of a 100 fold concentrated compound solution in DMSO. After incubation at room temperature for 15 minutes, coumberon in PBS was added to a final concentration of 6×10^−6M. Following a 3 h incubation at room temperature, the reaction was stopped by lysing the cells with 0.4% Triton X-100. Coumberol fluorescence intensity was measured at 520 nm (excitation 380 nm) with a suitable measuring instrument (Pherastar, BMG). […] The data were normalized (transfected cells+coumberon=0% inhibition; no cells+coumberone=100% inhibition). Substances were usually tested at 11 different concentrations on the same microtiter plate in a range between 96.8 pM to 20 μM (20 μM, 5.9 μM, 1.7 μM, 0.5 μM, 0.15 μM, 44 nM, 12.9 nM, 3.8 nM, 1.1 nM, 0.3 nM and 96.8 pM). The dilutions were carried out on a 100 fold concentrated solution by serial dilution in duplicates. From the obtained data IC50 values were calculated by a 4-parameter fit.

| pIC50 [1] | pIC50 [2] | SMILES |
| --- | --- | --- |
| 8.52 | 5.29 | C[C@]12CC[C@@H]3c4ccc(NS(=O)(=O)CCC(=O)O)cc4CC[C@H]3[C@@H]1CC=C2c1cncc(F)c1 [Example 39, 3-{[17-(5-fluoropyridin-3-yl)estra-1(10),2,4,16-tetraen-3-yl]sulfamoyl}propanoic acid] |
| 7.73 | 5.95 | CN(CCCC(=O)O)c1ccc2c(c1)CC[C@@H]1[C@@H]2CC[C@]2(C)C(c3cncc(F)c3)=CC[C@@H]12 [Example 44, 4-{[17-(5-fluoropyridin-3-yl)estra-1(10),2,4,16-tetraen-3-yl](methyl)amino}butanoic acid] |
| 8.77 | 6.82 | C[C@]12CC[C@@H]3c4ccc(S(=O)(=O)CCCC(=O)O)cc4CC[C@H]3[C@@H]1CC=C2c1cncc(Cl)c1 [Example 19, 4-{[17-(5-chloropyridin-3-yl)estra-1,3,5(10),16-tetraen-3-yl]sulfonyl}butanoic acid] |
| 7.93 | 5.66 | C[C@]12CC[C@@H]3c4ccc(NC(=O)CCc5nn[nH]n5)cc4CC[C@H]3[C@@H]1CC=C2c1cncc(F)c1 [Example 32, N-[17-(5-fluoropyridin-3-yl)estra-1(10),2,4,16-tetraen-3-yl]-3-(2H-tetrazol-5-yl)propanamide] |
| 7.47 | 5.75 | Cc1ccncc1C1=CC[C@H]2[C@@H]3CCc4cc(S(=O)(=O)CCCC(=O)O)ccc4[C@H]3CC[C@]12C [Example 18, 4-{[17-(4-methylpyridin-3-yl)estra-1,3,5(10),16-tetraen-3-yl]sulfonyl}butanoic acid] |
| 8.39 | 5.81 | CC(=O)NS(=O)(=O)CCC(=O)N(C)c1ccc2c(c1)CC[C@@H]1[C@@H]2CC[C@]2(C)C(c3cncc(F)c3)=CC[C@@H]12 [Example 31, 3-(acetylsulfamoyl)-N-[17-(5-fluoropyridin-3-yl)estra-1(10),2,4,16-tetraen-3-yl]-N-methylpropanamide] |
| 8.11 | 7.30 | COC(=O)CCCS(=O)(=O)c1ccc2c(c1)CC[C@@H]1[C@@H]2CC[C@]2(C)C(c3cncc(F)c3)=CC[C@@H]12 [Example 09, methyl 4-{[17-(5-fluoropyridin-3-yl)estra-1(10),2,4,16-tetraen-3-yl]sulfonyl}butanoate] |
| 8.28 | 7.00 | CC(=O)Nc1ccc2c(c1)CC[C@@H]1[C@@H]2CC[C@]2(C)C(c3cncc(F)c3)=CC[C@@H]12 [Example 40, N-[17-(5-fluoropyridin-3-yl)estra-1(10),2,4,16-tetraen-3-yl]acetamide] |
| 8.60 | 6.59 | CN(C(=O)CCc1nn[nH]n1)c1ccc2c(c1)CC[C@@H]1[C@@H]2CC[C@]2(C)C(c3cncc(F)c3)=CC[C@@H]12 [Example 33, N-[17-(5-fluoropyridin-3-yl)estra-1(10),2,4,16-tetraen-3-yl]-N-methyl-3-(2H-tetrazol-5-yl)propanamide] |
| 8.62 | 7.30 | CN(CCCO)S(=O)(=O)c1ccc2c(c1)CC[C@@H]1[C@@H]2CC[C@]2(C)C(c3cncc(F)c3)=CC[C@@H]12 [Example 03, 17-(5-fluoropyridin-3-yl)-N-(3-hydroxypropyl)-N-methylestra-1(10),2,4,16-tetraene-3-sulfonamide] |
| 8.74 | 6.01 | Cc1cc(C2=CC[C@H]3[C@@H]4CCc5cc(NC(=O)CCC(=O)O)ccc5[C@H]4CC[C@]23C)cnn1 [Example 45, 4-{[17-(6-methylpyridazin-4-yl)estra-1(10),2,4,16-tetraen-3-yl]amino}-4-oxobutanoic acid] |
| 7.14 | 5.50 | Cc1ccc(C2=CC[C@H]3[C@@H]4CCc5cc(S(=O)(=O)CCCC(=O)O)ccc5[C@H]4CC[C@]23C)cn1 [Example 15, 4-{[17-(6-methylpyridin-3-yl)estra-1,3,5(10),16-tetraen-3-yl]sulfonyl}butanoic acid] |
| 8.49 | 6.68 | CN(C(=O)CCC(=O)O)c1ccc2c(c1)CC[C@@H]1[C@@H]2CC[C@]2(C)C(c3cncc(F)c3)=CC[C@@H]12 [Example 35, 4-{[17-(5-fluoropyridin-3-yl)estra-1(10),2,4,16-tetraen-3-yl](methyl)amino}-4-oxobutanoic acid] |
| 8.28 | 7.40 | C[C@]12CC[C@@H]3c4ccc(S(=O)(=O)CCCCO)cc4CC[C@H]3[C@@H]1CC=C2c1cncc(F)c1 [Example 21, 4-{[17-(5-fluoropyridin-3-yl)estra-1(10),2,4,16-tetraen-3-yl]sulfonyl}butan-1-ol] |
| 7.92 | 6.15 | C[C@]12CC[C@@H]3c4ccc(S(=O)(=O)CCCC(=O)O)cc4CC[C@H]3[C@@H]1CC=C2c1cccnc1 [Example 12, 4-{[17-(pyridin-3-yl)estra-1(10),2,4,16-tetraen-3-yl]sulfonyl}butanoic acid] |
